In US12187728B2 (Raze Therapeutics, Inc., priority 2015, dated 2025) one finds IC50 data, which are given here for 22 compounds.

This assay deals with T1, Human MTHFD2 (Homo sapiens, UniProt P13995).
T1 construct: residues 36-350 in Uniport ID P13995; His6 (N); made in house; host or cells: E. coli
T1 sequence (P13995 36-350): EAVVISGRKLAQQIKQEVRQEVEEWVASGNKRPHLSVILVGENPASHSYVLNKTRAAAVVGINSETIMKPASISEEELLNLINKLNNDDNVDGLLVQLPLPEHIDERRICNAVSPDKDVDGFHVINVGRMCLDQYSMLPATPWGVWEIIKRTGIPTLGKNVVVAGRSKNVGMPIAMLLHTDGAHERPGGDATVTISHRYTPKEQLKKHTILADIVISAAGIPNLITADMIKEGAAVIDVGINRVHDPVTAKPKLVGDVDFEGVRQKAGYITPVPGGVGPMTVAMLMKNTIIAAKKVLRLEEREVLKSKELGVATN
The experiment in a line: MTHFD2 Activity Assay (dehydrogenase activity, diaphorase/resazurin coupled fluorescence). It is filed as biochemical. Conditions: inhibitory activity (IC50 and/or binding constant); 0.2 nM MTHFD2, 11 concentrations. In outline:
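Resorufin fluorescence (ex 525, em 598 nm) reports NADH formed by the dehydrogenase via diaphorase coupling. Enzyme (0.2 nM, residues 36-350, N-His6) sat with compound 15 min before 70 μM CH2-THF and 1 mM NAD+ started a 30 min reaction. IC50s come from 4-parameter fits over 11 concentrations.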
Broadly, the IC50 is the concentration that inhibits the measured activity by half. Higher therefore signals weaker potency. Compound `Cn1c(NCc2cn[nH]c2)nc2c1c(=O)n(Cc1ccc(Cl)c(Cl)c1)c(=O)n2C` [Example 42, 1-[(3,4-dichlorophenyl)methyl]-3,7-dimethyl-8-[(1H-pyrazol-4-ylmethyl)amino]-2,3,6,7-tetrahydro-1H-purine-2,6-dione] displayed an IC50 of 1000 to 5000 nM.
As to `Cn1c(N[C@H]2C[C@@H](C(=O)O)C2)nc2c1c(=O)n(Cc1ccc(Cl)c(Cl)c1)c(=O)n2C` [Example 259, (±)-(cis)-3-(1-(3,4-dichlorobenzyl)-3,7-dimethyl-2,6-dioxo-2,3,6,7-tetrahydro-1H-purin-8-ylamino)cyclobutanecarboxylic acid], the IC50 was 10 to 1000 nM.
Under `Cn1c(Nc2ccc(S(C)(=O)=O)cc2)nc2c1c(=O)n(Cc1cc3c(Cl)cccc3[nH]1)c(=O)n2C` [Example 367, 1-[(4-chloro-1H-indol-2-yl)methyl]-3,7-dimethyl-8-(4-methylsulfonylanilino)purine-2,6-dione] stands 10 to 1000 nM.
On to `C[C@@H](CCO)Nc1nc2c(c(=O)n(Cc3ccc(Cl)c(Cl)c3)c(=O)n2C)n1C` [Example 32, 1-[(3,4-dichlorophenyl)methyl]-8-{[(2S)-4-hydroxybutan-2-yl]amino}-3,7-dimethyl-2,3,6,7-tetrahydro-1H-purine-2,6-dione], for which the 50% inhibitory concentration (IC50) was 10 to 1000 nM.
`Cn1c(Nc2ccnc([C@@H]3C[C@H]3CO)c2)nc2c1c(=O)n(Cc1ccc(Cl)c(Cl)c1)c(=O)n2C` (single isomer, unassigned) [Example 337, 1-(3,4-dichlorobenzyl)-8-((2-((1R,2R)-2-(hydroxymethyl)cyclopropyl)pyridin-4-yl)amino)-3,7-dimethyl-1H-purine-2,6(3H,7H)-dione or 1-(3,4-dichlorobenzyl)-8-((2-((1S,2S)-2-(hydroxymethyl)cyclopropyl)pyridin-4-yl)amino)-3,7-dimethyl-1H-purine-2,6(3H,7H)-dione] registered a half-maximal inhibitory concentration (IC50) of 1000 to 5000 nM.
Under `Cn1c(N[C@H]2CCC[C@@H](O)C2)nc2c1c(=O)n(Cc1ccc(Cl)c(Cl)c1)c(=O)n2C` (single isomer, unassigned) [Example 79, 1-(3,4-dichlorobenzyl)-8-((1S,3R)-3-hydroxycyclohexylamino)-3,7-dimethyl-1H-purine-2,6(3H,7H)-dione or 1-(3,4-dichlorobenzyl)-8-((1R,3S)-3-hydroxycyclohexylamino)-3,7-dimethyl-1H-purine-2,6(3H,7H)-dione] stands 10 to 1000 nM; under `Cc1cccc2[nH]c(Cn3c(=O)c4c(nc(Nc5ccncc5)n4C)n(C)c3=O)cc12` [Example 328, 1-((4-methyl-1H-indol-2-yl)methyl)-3,7-dimethyl-8-(pyridin-4-ylamino)-1H-purine-2,6(3H,7H)-dione], 10 to 1000 nM; under `Cn1c(N[C@@H]2CCC[C@@H]2O)nc2c1c(=O)n(Cc1cc3c(Cl)cccc3[nH]1)c(=O)n2C` [Example 359], 10 to 1000 nM.
Under `Cn1c(NC2CCOCC2)nc2c1c(=O)n(Cc1ccc(Cl)c(Cl)c1)c(=O)n2C` [Example 48, 1-[(3,4-dichlorophenyl)methyl]-3,7-dimethyl-8-[(oxan-4-yl)amino]-2,3,6,7-tetrahydro-1H-purine-2,6-dione] stands 10 to 1000 nM.
Under `Cn1c(CC(=O)O)nc2c1c(=O)n(Cc1ccc(Cl)c(Cl)c1)c(=O)n2C` [Example 101, 2-(1-(3,4-dichlorobenzyl)-3,7-dimethyl-2,6-dioxo-2,3,6,7-tetrahydro-1H-purin-8-yl)acetic acid] stands 5000 to 10000 nM; under `Cn1c(NC2CCCNC2=O)nc2c1c(=O)n(Cc1ccc(Cl)c(Cl)c1)c(=O)n2C` (racemic) [Example 89, (±)-1-[(3,4-dichlorophenyl)methyl]-3,7-dimethyl-8-[(2-oxopiperidin-3-yl)amino]-2,3,6,7-tetrahydro-1H-purine-2,6-dione], 10 to 1000 nM; under `Cn1c(Nc2ccncc2)nc2c1c(=O)n(Cc1ccc(Cl)c(Cl)c1)c(=O)n2C` [Example 125, 1-(3,4-dichlorobenzyl)-3,7-dimethyl-8-(pyridin-4-ylamino)-1H-purine-2,6(3H,7H)-dione], 10 to 1000 nM.
`Cn1c(NC2CCNC(=O)C2)nc2c1c(=O)n(Cc1cc3ccccc3[nH]1)c(=O)n2C` (racemic) [Example 215, (±)-1-((1H-indol-2-yl)methyl)-3,7-dimethyl-8-(2-oxopiperidin-4-ylamino)-1H-purine-2,6(3H,7H)-dione] came in with an IC50 of 10 to 1000 nM.
`Cn1c(Nc2cccc(CCC(N)=O)n2)nc2c1c(=O)n(Cc1ccc(Cl)c(Cl)c1)c(=O)n2C` [Example 292, 3-(6-(1-(3,4-dichlorobenzyl)-3,7-dimethyl-2,6-dioxo-2,3,6,7-tetrahydro-1H-purin-8-ylamino)pyridin-2-yl)propanamide] had an IC50 of 10 to 1000 nM.
Compound `Cn1c(NCc2ccccn2)nc2c1c(=O)n(Cc1ccc(Cl)c(Cl)c1)c(=O)n2C` [Example 139, 1-(3,4-dichlorobenzyl)-3,7-dimethyl-8-(pyridin-2-ylmethylamino)-1H-purine-2,6(3H,7H)-dione] had an IC50 of 1000 to 5000 nM.
Under `Cn1c(N[C@@H]2CC[C@H](C(=O)O)C2)nc2c1c(=O)n(Cc1ccc(Cl)c(Cl)c1)c(=O)n2C` [Example 50, (1S,3R)-3-({1-[(3,4-dichlorophenyl)methyl]-3,7-dimethyl-2,6-dioxo-2,3,6,7-tetrahydro-1H-purin-8-yl}amino)cyclopentane-1-carboxylic acid] stands 10 to 1000 nM.
Under `Cn1c(N[C@H]2CC[C@H](C(=O)O)CC2)nc2c1c(=O)n(Cc1ccc(Cl)c(Cl)c1)c(=O)n2C` [Example 272, (±)-trans-4-[[1-[(3,4-dichlorophenyl)methyl]-3,7-dimethyl-2,6-dioxo-purin-8-yl]amino]cyclohexanecarboxylic acid] stands 10 to 1000 nM; under `Cn1c(Nc2ccc(C(F)(F)F)nc2)nc2c1c(=O)n(Cc1cc3c(Cl)cccc3[nH]1)c(=O)n2C` [Example 382, 1-((4-chloro-1H-indol-2-yl)methyl)-3,7-dimethyl-8-(6-(trifluoromethyl)pyridin-3-ylamino)-1H-purine-2,6(3H,7H)-dione], 10 to 1000 nM; under `Cn1c(Nc2ccncc2)nc2c1c(=O)n(Cc1cc3cccc(F)c3[nH]1)c(=O)n2C` [Example 366, 1-[(7-fluoro-1H-indol-2-yl)methyl]-3,7-dimethyl-8-(4-pyridylamino)purine-2,6-dione], 10 to 1000 nM.
Under `Cn1c(Nc2ccncc2)nc2c1c(=O)n(Cc1cc3cc(Cl)ccc3[nH]1)c(=O)n2C` [Example 176, 1-((5-chloro-1H-indol-2-yl)methyl)-3,7-dimethyl-8-(pyridin-4-ylamino)-1H-purine-2,6(3H,7H)-dione] stands 10 to 1000 nM; under `Cn1c(Nc2cccc(CC(=O)O)c2)nc2c1c(=O)n(Cc1cc3c(Cl)cccc3[nH]1)c(=O)n2C` [Example 339, 2-(3-((1-((4-chloro-1H-indol-2-yl)methyl)-3,7-dimethyl-2,6-dioxo-2,3,6,7-tetrahydro-1H-purin-8-yl)amino)phenyl)acetic acid], 10 to 1000 nM.
In the case of `COc1ccc2[nH]c(Cn3c(=O)c4c(nc(Nc5ccncc5)n4C)n(C)c3=O)cc2c1` [Example 183, 1-((5-methoxy-1H-indol-2-yl)methyl)-3,7-dimethyl-8-(pyridin-4-ylamino)-1H-purine-2,6(3H,7H)-dione], the concentration for half-maximal inhibition (IC50) lay in the range of 10 to 1000 nM.
